Active and inactive are the calls of the source. The rule behind the calls is not given here.
Tests used:
[1] = molecular target: Glutamate NMDA receptor; Grin1/Grin2b (Rattus norvegicus, UniProt P35439+Q00960); test: Binding affinity against NR1A/2B receptor in rat brains by [3H]ifenprodil displacement.; format: tissue-based, Brain
Rattus norvegicus [2] = test: In vivo minimum effective dose for anti-Parkinsonian activity in 6-OHDA rat model upon p.o. administration; Not active.; format: functional
Rattus norvegicus [3] = test: In vivo minimum effective dose inhibition of neuropathic pain (formalin test) upon p.o. administration; Not active.; format: functional, organism-based
[4] = Binding affinity against NR1A/2B receptor using [3H]-ifenprodil radioligand in native rat brains; NA means not active
Rattus norvegicus [5] = test: Minimum effective dose required to measure neuropathic pain (In vivo) by formalin test upon p.o. […] in rat; format: functional; settings: po, read-out: MED
Rattus norvegicus [6] = test: Minimum effective dose required to measure anti-parkinson's activity (In vivo) upon p.o. […] in rat; format: functional; settings: po, read-out: MED

Glutamate NMDA receptor; Grin1/Grin2b, sequence (Q00960 whole entry, other chains not shown): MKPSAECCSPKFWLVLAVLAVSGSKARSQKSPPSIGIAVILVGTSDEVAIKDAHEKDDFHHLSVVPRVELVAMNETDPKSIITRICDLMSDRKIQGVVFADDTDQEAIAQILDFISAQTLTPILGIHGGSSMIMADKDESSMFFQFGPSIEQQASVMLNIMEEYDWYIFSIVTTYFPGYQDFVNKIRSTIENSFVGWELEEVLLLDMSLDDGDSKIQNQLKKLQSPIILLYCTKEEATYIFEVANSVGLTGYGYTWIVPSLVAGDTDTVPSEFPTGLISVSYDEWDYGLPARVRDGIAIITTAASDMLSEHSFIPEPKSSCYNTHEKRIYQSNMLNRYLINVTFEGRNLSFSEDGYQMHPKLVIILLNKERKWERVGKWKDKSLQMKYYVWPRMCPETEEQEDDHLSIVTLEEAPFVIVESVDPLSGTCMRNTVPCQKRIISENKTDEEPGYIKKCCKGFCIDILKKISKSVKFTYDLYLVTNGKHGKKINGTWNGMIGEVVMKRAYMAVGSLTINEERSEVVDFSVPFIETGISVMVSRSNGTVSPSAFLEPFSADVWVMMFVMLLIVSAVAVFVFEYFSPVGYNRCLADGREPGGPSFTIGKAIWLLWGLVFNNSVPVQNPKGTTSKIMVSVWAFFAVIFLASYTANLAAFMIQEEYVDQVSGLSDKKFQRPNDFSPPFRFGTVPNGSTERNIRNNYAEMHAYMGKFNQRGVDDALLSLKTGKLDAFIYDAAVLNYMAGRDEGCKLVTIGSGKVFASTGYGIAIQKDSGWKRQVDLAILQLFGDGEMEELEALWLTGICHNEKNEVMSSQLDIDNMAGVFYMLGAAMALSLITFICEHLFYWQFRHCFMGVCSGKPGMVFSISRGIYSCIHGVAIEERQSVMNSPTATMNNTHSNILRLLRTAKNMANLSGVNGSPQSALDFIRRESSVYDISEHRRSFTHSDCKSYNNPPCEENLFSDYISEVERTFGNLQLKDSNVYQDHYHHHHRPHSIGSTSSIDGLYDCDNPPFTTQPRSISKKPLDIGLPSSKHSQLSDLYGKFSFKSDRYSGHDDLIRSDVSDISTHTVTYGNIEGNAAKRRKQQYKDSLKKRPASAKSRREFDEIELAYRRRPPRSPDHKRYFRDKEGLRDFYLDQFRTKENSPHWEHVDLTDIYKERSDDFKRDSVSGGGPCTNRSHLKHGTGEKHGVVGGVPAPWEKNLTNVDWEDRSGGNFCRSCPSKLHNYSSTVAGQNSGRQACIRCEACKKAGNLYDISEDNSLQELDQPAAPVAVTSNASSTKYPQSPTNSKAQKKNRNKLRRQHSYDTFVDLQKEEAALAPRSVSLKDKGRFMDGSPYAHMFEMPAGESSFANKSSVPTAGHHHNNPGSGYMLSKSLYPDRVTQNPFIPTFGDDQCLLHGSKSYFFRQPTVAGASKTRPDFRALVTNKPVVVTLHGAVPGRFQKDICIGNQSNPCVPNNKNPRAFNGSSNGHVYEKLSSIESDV

SMILES	IC50 [1] [µM]	MED (Rattus norvegicus [2])	MED (Rattus norvegicus [3])	other results
Cc1cc(C#CCN2CCC(Cc3ccc(F)cc3)CC2)cc2[nH]c(=O)[nH]c12	0.02	–	–	–
Oc1nc2c(C#CCN3CCC(Cc4ccc(F)cc4)CC3)cccc2[nH]1	–	inactive	inactive	–
Cc1c(C#CCN2CCC(Cc3ccc(F)cc3)CC2)cc2nc(O)[nH]c2c1C	–	inactive	inactive	–
CC(C#Cc1ccc2[nH]c(O)nc2c1)N1CCC(Cc2ccc(F)cc2)CC1 (stereo not drawn)	–	inactive	inactive	–
Fc1ccc(CC2CCN(CC#Cc3ccc4[nH]c(=S)[nH]c4c3)CC2)cc1	0.019	–	–	–
Oc1nc2cc(C#CCN3CCC(=Cc4ccc(F)cc4)CC3)ccc2[nH]1	–	inactive	inactive	–
O=c1[nH]c2ccc(C#CCN3CCC(=Cc4ccc(F)cc4)CC3)cc2[nH]1	0.142	–	–	–
Oc1nc2c(C(F)(F)F)cc(C#CCN3CCC(Cc4ccc(F)cc4)CC3)cc2[nH]1	–	inactive	inactive	IC50 [4]: Not Active
Cc1cc2[nH]c(=O)[nH]c2cc1C#CCN1CCC(Cc2ccc(F)cc2)CC1	0.004	–	–	–
CC1CC(Cc2ccc(F)cc2)CC(C)N1CC#Cc1ccc2[nH]c(O)nc2c1 (stereo not drawn)	–	inactive	inactive	–
Fc1ccc(CC2CCN(CC#Cc3ccc4[nH]c(S)nc4c3)CC2)cc1	–	inactive	inactive	–
Oc1nc2cc(C#CCN3CCC(Cc4ccc(F)cc4)CC3)ccc2[nH]1	–	–	–	minimal effective dose (Rattus norvegicus [2]; po, read-out: MED): 10 mg/kg; minimal effective dose (Rattus norvegicus [5]): 10 mg/kg
Oc1nc2ccc(C#CCN3CCC(O)(Cc4ccc(F)cc4)CC3)cc2o1	–	inactive	–	minimal effective dose (Rattus norvegicus [5]): 30 mg/kg
Oc1nc2cc(C#CCN3CCC(Cc4cccc(F)c4)CC3)ccc2[nH]1	0.014	inactive	inactive	–
Oc1nc2cc(C#CCN3CCC(CCc4ccc(F)cc4)CC3)ccc2[nH]1	–	inactive	inactive	–
COc1cc2[nH]c(=O)[nH]c2cc1C#CCN1CCC(Cc2ccc(F)cc2)CC1	0.009	–	–	–

SMILES	IC50 [1] [µM]	MED (Rattus norvegicus [2])	MED (Rattus norvegicus [3])	other results
Cc1cc2[nH]c(O)nc2cc1C#CCN1CCC(Cc2ccc(F)cc2)CC1	–	inactive	inactive	–
CC(C#Cc1ccc2[nH]c(=O)[nH]c2c1)N1CCC(Cc2ccc(F)cc2)CC1 (stereo not drawn)	0.1	–	–	–
CC1CC(Cc2ccc(F)cc2)CC(C)N1CC#Cc1ccc2[nH]c(=O)[nH]c2c1 (stereo not drawn)	0.157	–	–	–
Oc1nc2cc(C#CCN3CCC(Cc4ccc(F)cc4)CC3)c[nH]c-2n1	–	inactive	inactive	–
Oc1nc2ccc(C#CCN3CCC(Cc4ccc(F)cc4)CC3)cc2o1	–	inactive	–	minimal effective dose (Rattus norvegicus [5]): 30 mg/kg
CC(C)(C#Cc1ccc2[nH]c(=O)[nH]c2c1)N1CCC(Cc2ccc(F)cc2)CC1	> 1	–	–	–
O=C1Cc2cc(C#CCN3CCC(Cc4ccc(F)cc4)CC3)ccc2N1	0.056	inactive	inactive	–
Cc1cc(C#CCN2CCC(Cc3ccc(F)cc3)CC2)cc2[nH]c(O)nc12	–	–	inactive	minimal effective dose (Rattus norvegicus [6]): 30 mg/kg
CC1CC(Cc2ccc(F)cc2)CCN1CC#Cc1ccc2[nH]c(O)nc2c1 (stereo not drawn)	–	inactive	inactive	–
Oc1nc2cc(C#CCN3CCC(O)(Cc4ccc(F)cc4)CC3)ccc2[nH]1	0.021	inactive	inactive	–
CC1CC(Cc2ccc(F)cc2)CCN1CC#Cc1ccc2[nH]c(=O)[nH]c2c1 (stereo not drawn)	0.104	–	–	–
O=c1[nH]c2cc(C#CCN3CCC(Cc4ccc(F)cc4)CC3)cnc2[nH]1	0.002	–	–	–
COc1cc2[nH]c(O)nc2cc1C#CCN1CCC(Cc2ccc(F)cc2)CC1	–	inactive	inactive	–
CC(C)(C#Cc1ccc2[nH]c(O)nc2c1)N1CCC(Cc2ccc(F)cc2)CC1	–	inactive	inactive	–
Oc1nc2ccc(C#CCN3CCC(O)(Cc4ccc(F)cc4)CC3)cc2s1	0.024	inactive	inactive	–
O=c1[nH]c2cccc(C#CCN3CCC(Cc4ccc(F)cc4)CC3)c2[nH]1	0.284	–	–	–

Reference: ChEMBL document CHEMBL1147596, “Subtype selective NMDA receptor antagonists: evaluation of some novel alkynyl analogues” (Bioorg Med Chem Lett, 2004)
